Series [1] can be described thus: Solubility in gastric juice or intestinal juice model fluid (precipitation method using DMSO). Format: physicochemical. The following applies: room temperature. In a few lines: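 Compound in DMSO added to JP disintegration test fluid 1 (pH 1.2) or fluid 2 (pH 6.8) and shaken 24 h at room temperature. After filtration, dissolved concentration (μg/mL) determined by UV absorbance against compound calibration curves.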

In series [2] the test system is lipoprotein lipase (LPL) gene. Kind of series: LPL mRNA elevating action (RT-PCR quantification of LPL mRNA in C2Cl2 cells). Format: cell-based, mouse. The following applies: Mus musculus, 24 h, compound 10 μM, ratio relative to the amount of LPL mRNA in cells with DMSO only, read-out: Rate of increase in LPL mRNA. The essentials:
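Mouse striated-muscle C2Cl2 cells in DMEM with 10% FBS exposed to compounds at 10 μM for 24 h. LPL mRNA quantified by RT-PCR and real-time PCR (20 cycles), expressed as ratio to DMSO-only cells set at 1.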

Where [3] appears, read: pH 1.2, simulated gastric fluid, kinetic from dmso stock, 1st fluid for Disintegration Test of Japanese Pharmacopoeia (pH: 1.2), read-out: Solubility (μg/mL) 1st fluid.
Where [4] appears, read: pH 6.8, kinetic from dmso stock, 2nd fluid for Disintegration Test of Japanese Pharmacopoeia (pH: 6.8), read-out: Solubility (μg/mL) 2nd fluid.

The text below walks through data of patent US10570117B2, “Phenylimidazole compound” (Otsuka Pharmaceutical Factory, Inc., priority 2015, dated 2020).

Structures are written as SMILES. Values after ≈ are worked out from the molar mass of the structure shown. Read-outs that look alike come from different tables or passages of the source. A value given as a limit tells only on which side of the number the result lay.

What is called melting point is the temperature, or range, at which the solid turns liquid. For `COc1cc(OC(C)c2cccc(C(F)(F)F)n2)ccc1-c1[nH]c(-c2ccc(F)nc2)nc1Cl` (stereo not shown) [Example 237], the melting point fell in the range of 170 to 175 °C. In series [1] (setting [3]), the solubility at 24 h was 7.1 µg/mL (≈ 14.4 µM). The solubility at 24 h in series [1] (setting [4]) is less than 1.8 µg/mL. Besides, the fold induction at 10 µM in series [2] was found to be 2.82.
The like results for `COc1cc(OC(C)c2ncc(Br)cc2F)ccc1-c1[nH]c(-c2ccc(F)nc2)nc1Cl` (stereo not shown) [Example 238] were, in that order, 173 to 175 °C, 7.5 µg/mL (≈ 14.4 µM), 5.6 µg/mL (≈ 10.7 µM) and 2.42.
Taken in the same sequence, the figures for `COc1cc(OC(C)c2ccc(C(F)(F)F)nc2)ccc1-c1[nH]c(-c2ccc(F)nc2)nc1Cl` (stereo not shown) [Example 239] were 148 to 150 °C, 8.8 µg/mL (≈ 17.9 µM), 15.6 µg/mL (≈ 31.7 µM) and 2.39.
`COc1cc(OCc2ncc(F)cc2F)ccc1-c1[nH]c(-c2ccc(Cl)nc2)nc1Cl` [Example 247]: the melting point is 187 to 190 °C. The solubility at 24 h in series [1] (setting [3]) was 8.4 µg/mL (≈ 18.1 µM). In addition, in series [1] (setting [4]), the solubility at 24 h amounted to 5.3 µg/mL (≈ 11.4 µM). In addition, the fold induction at 10 µM in series [2] worked out at 2.25.
The like results for `COc1cc(OCc2ncccc2C(F)(F)F)ccc1-c1[nH]c(-c2ccc(Cl)nc2)nc1Br` [Example 253] were, in that order, 176 to 186 °C, 5.9 µg/mL (≈ 10.9 µM), 1 µg/mL (≈ 1.85 µM) and 2.62.
For `COc1cc(OCc2ncc(C(F)(F)F)cc2F)ccc1-c1[nH]c(-c2ccc(F)nc2)nc1Br` [Example 255], the melting point was 156 to 158 °C. For the same compound, the solubility at 24 h in series [1] (setting [3]) is 17.5 µg/mL (≈ 32.3 µM). Moreover, in series [1] (setting [4]), the solubility at 24 h is less than 0.4 µg/mL. Further, the fold induction at 10 µM in series [2] came to 3.14.
In turn, `COc1cc(OCc2cnccc2C(F)(F)F)ccc1-c1[nH]c(-c2ccc(F)nc2)nc1Br` [Example 256] yielded a melting point of 132 to 162 °C. For the same compound, the solubility at 24 h in series [1] (setting [3]) was 11.4 µg/mL (≈ 21.8 µM). Besides, the solubility at 24 h in series [1] (setting [4]) was less than 0.4 µg/mL. The fold induction at 10 µM in series [2] came out at 3.12.
On to `COc1cc(OCc2ncc(Cl)cc2Br)ccc1-c1[nH]c(-c2ccc(F)nc2)nc1Cl` [Example 265], for which the melting point fell in the range of 195 to 199 °C. Further, the solubility at 24 h in series [1] (setting [3]) is 2.2 µg/mL (≈ 4.2 µM). In addition, the solubility at 24 h in series [1] (setting [4]) worked out at 5.8 µg/mL (≈ 11.1 µM). Further, the fold induction at 10 µM in series [2] amounted to 3.36.
In turn, `COc1cc(OCc2ncc(F)cc2F)ccc1-c1[nH]c(-c2ccc(F)nc2)nc1Br` [Example 266] returned a melting point of 161 to 164 °C. Further, the solubility at 24 h in series [1] (setting [3]) was 64.3 µg/mL (≈ 131 µM). The solubility at 24 h in series [1] (setting [4]) came out at 4.6 µg/mL (≈ 9.36 µM). The fold induction at 10 µM in series [2] came out at 2.38.
As to `COc1cc(OCc2ncc(Cl)cc2F)ccc1-c1[nH]c(-c2ccc(F)nc2)nc1Br` [Example 267], the melting point fell in the range of 175 to 178 °C. In addition, in series [1] (setting [3]), the solubility at 24 h is 17.7 µg/mL (≈ 34.9 µM). Also, the solubility at 24 h in series [1] (setting [4]) was determined as 0.4 µg/mL (≈ 0.788 µM). The fold induction at 10 µM in series [2] came to 2.66.
Taken in the same sequence, the figures for `COc1cc(OCc2ncc(Br)cc2F)ccc1-c1[nH]c(-c2ccc(F)nc2)nc1Br` [Example 268] were 179 to 181 °C, 13.8 µg/mL (≈ 25 µM), 6.6 µg/mL (≈ 12 µM) and 2.53.
`COc1cc(OCc2cncc(C(F)(F)F)c2)ccc1-c1[nH]c(-c2ccc(F)nc2)nc1Br` [Example 270] registered a melting point of 176 to 179 °C. In addition, the solubility at 24 h in series [1] (setting [3]) was 9.1 µg/mL (≈ 17.4 µM). Further, the solubility at 24 h in series [1] (setting [4]) was less than 0.4 µg/mL. Further, in series [2], the fold induction at 10 µM worked out at 3.81.
On to `COc1cc(OCc2ncc(Cl)cc2C(F)(F)F)ccc1-c1[nH]c(-c2ccc(F)nc2)nc1Br` [Example 274], for which the melting point is 167 to 168 °C. Also, the solubility at 24 h in series [1] (setting [3]) was 6.7 µg/mL (≈ 12 µM). The solubility at 24 h in series [1] (setting [4]) amounted to 0.4 µg/mL (≈ 0.717 µM). Further, the fold induction at 10 µM in series [2] was 3.41.
The like results for `COc1cc(OCc2ccncc2C(F)(F)F)ccc1-c1[nH]c(-c2ccc(F)nc2)nc1Br` [Example 276] were, in that order, 199 to 203 °C (dec.), 66.5 µg/mL (≈ 127 µM), 6.7 µg/mL (≈ 12.8 µM) and 2.36.
The like results for `COc1cc(OCc2cncc(C(F)(F)F)c2)ccc1-c1[nH]c(-c2ccc(F)nc2)nc1Cl` [Example 279] were, in that order, 188 to 190 °C, 4.1 µg/mL (≈ 8.56 µM), 0.5 µg/mL (≈ 1.04 µM) and 3.63.
The compound `COc1cc(OCc2ncc(C(F)(F)F)cc2F)ccc1-c1[nH]c(-c2ccc(F)nc2)nc1Cl` [Example 281] had a melting point of 150 to 152 °C. Besides, the solubility at 24 h in series [1] (setting [3]) was 9.7 µg/mL (≈ 19.5 µM). Besides, the solubility at 24 h in series [1] (setting [4]) worked out at 9.3 µg/mL (≈ 18.7 µM). For the same compound, in series [2], the fold induction at 10 µM stood at 3.36.
Turning to `COc1cc(O[C@H](C)c2ccc(C(F)(F)F)cc2)ccc1-c1[nH]c(-c2ccc(F)nc2)nc1Cl` [Example 290], the melting point lay in the range of 137 to 139 °C. In addition, the solubility at 24 h in series [1] (setting [3]) was less than 0.3 µg/mL. Besides, the solubility at 24 h in series [1] (setting [4]) was found to be 27.6 µg/mL (≈ 56.1 µM). Moreover, the fold induction at 10 µM in series [2] is 2.64.
The like results for `COc1cc(OCc2ccc(C(F)(F)F)cn2)ccc1-c1nc(C2CCC(F)(F)CC2)n(CC2CC2)c1Cl` [Example 292] were, in that order, 144 to 146 °C, greater than 111 µg/mL, less than 9.9 µg/mL and 2.81.
`COc1cc(OCc2ccc(C(F)(F)F)cn2)ccc1-c1nc(-c2ccc(Cl)nc2)n(CC2CC2)c1Cl` [Example 294] returned a melting point of 123 to 126 °C. The solubility at 24 h in series [1] (setting [3]) was 104 µg/mL (≈ 189 µM). Also, the solubility at 24 h in series [1] (setting [4]) was determined as 2.4 µg/mL (≈ 4.37 µM). The fold induction at 10 µM in series [2] was 2.42.
With `COc1cc(OCc2ccc(C(F)(F)F)cn2)ccc1-c1c(Cl)nc(-c2ccc(Cl)nc2)n1CC1CC1` [Example 295], the melting point fell in the range of 130 to 132 °C. In series [1] (setting [3]), the solubility at 24 h is 18.3 µg/mL (≈ 33.3 µM). Moreover, the solubility at 24 h in series [1] (setting [4]) was 1.1 µg/mL (≈ 2 µM). For the same compound, the fold induction at 10 µM in series [2] turned out to be 4.06.
Compound `COCCn1c(-c2ccc(F)nc2)nc(Cl)c1-c1ccc(OCc2ccc(C(F)(F)F)cn2)cc1OC` [Example 297] displayed a melting point of 131 to 136 °C. For the same compound, the solubility at 24 h in series [1] (setting [3]) was 89.8 µg/mL (≈ 167 µM). In series [1] (setting [4]), the solubility at 24 h worked out at 7 µg/mL (≈ 13 µM). Also, the fold induction at 10 µM in series [2] worked out at 2.76.
For the compound `COc1cc(OCc2ccc(C(F)(F)F)cn2)ccc1-c1c(Br)nc(-c2ccc(Cl)nc2)n1C` [Example 301], the melting point was in the range of 125 to 127 °C. For the same compound, the solubility at 24 h in series [1] (setting [3]) was 15.1 µg/mL (≈ 27.3 µM). Besides, the solubility at 24 h in series [1] (setting [4]) was less than 0.4 µg/mL. In addition, the fold induction at 10 µM in series [2] was 2.99.
On to `COc1cc(OCc2ccc(C(F)(F)F)cn2)ccc1-c1nc(-c2ccc(F)nc2)n(C)c1Br` [Example 302], for which the melting point was 179 to 181 °C. Also, the solubility at 24 h in series [1] (setting [3]) is greater than 107 µg/mL. Besides, the solubility at 24 h in series [1] (setting [4]) was less than 0.4 µg/mL. For the same compound, in series [2], the fold induction at 10 µM came to 2.44.
`COc1cc(OCc2ccc(C(F)(F)F)cn2)ccc1-c1c(Br)nc(-c2ccc(F)nc2)n1C` [Example 303]: the melting point was in the range of 130 to 132 °C. In addition, the solubility at 24 h in series [1] (setting [3]) is 84.3 µg/mL (≈ 157 µM). Further, in series [1] (setting [4]), the solubility at 24 h is less than 0.4 µg/mL. In addition, in series [2], the fold induction at 10 µM was 3.29.
In turn, `COc1cc(OCc2ccc(C(F)(F)F)cn2)ccc1-c1c(Cl)nc(-c2ccc(Cl)nc2)n1C` [Example 309] displayed a melting point of 133 to 135 °C. The solubility at 24 h in series [1] (setting [3]) was 14.8 µg/mL (≈ 29.1 µM). For the same compound, the solubility at 24 h in series [1] (setting [4]) was less than 0.4 µg/mL. For the same compound, the fold induction at 10 µM in series [2] is 2.37.
